Measurements reported in patent US20240360151A1 (SANOFI, priority 2023, published 2024).

Biological target: T1, NLRP3 inflammasome (Homo sapiens, UniProt Q96P20)
T1 construct: endogenous in cells; host or cells: THP-1 monocytic cells
Assay: IL-1β secretion assay (NLRP3 IC50) in LPS-primed, nigericin-activated THP-1 cells, HTRF
Assay type: cell-based
Details: monocytic THP-1 cells; LPS 10 ng/mL 3 h priming, then compound + nigericin 10 μM 2 h; relative IC50, 10 concentrations, geometric mean
How it was run: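 IL-1β in supernatant read by HTRF after 2 h co-incubation of compound (0.1% DMSO, 10 concentrations, 1:3 series) with nigericin at 10 μM final, following 3 h LPS (10 ng/mL) priming of THP-1 monocytes at 37° C. Inhibition normalised to unactivated and no-compound controls; geometric-mean relative IC50 from 4-parameter logistic model.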

T1 sequence (Q96P20 whole entry): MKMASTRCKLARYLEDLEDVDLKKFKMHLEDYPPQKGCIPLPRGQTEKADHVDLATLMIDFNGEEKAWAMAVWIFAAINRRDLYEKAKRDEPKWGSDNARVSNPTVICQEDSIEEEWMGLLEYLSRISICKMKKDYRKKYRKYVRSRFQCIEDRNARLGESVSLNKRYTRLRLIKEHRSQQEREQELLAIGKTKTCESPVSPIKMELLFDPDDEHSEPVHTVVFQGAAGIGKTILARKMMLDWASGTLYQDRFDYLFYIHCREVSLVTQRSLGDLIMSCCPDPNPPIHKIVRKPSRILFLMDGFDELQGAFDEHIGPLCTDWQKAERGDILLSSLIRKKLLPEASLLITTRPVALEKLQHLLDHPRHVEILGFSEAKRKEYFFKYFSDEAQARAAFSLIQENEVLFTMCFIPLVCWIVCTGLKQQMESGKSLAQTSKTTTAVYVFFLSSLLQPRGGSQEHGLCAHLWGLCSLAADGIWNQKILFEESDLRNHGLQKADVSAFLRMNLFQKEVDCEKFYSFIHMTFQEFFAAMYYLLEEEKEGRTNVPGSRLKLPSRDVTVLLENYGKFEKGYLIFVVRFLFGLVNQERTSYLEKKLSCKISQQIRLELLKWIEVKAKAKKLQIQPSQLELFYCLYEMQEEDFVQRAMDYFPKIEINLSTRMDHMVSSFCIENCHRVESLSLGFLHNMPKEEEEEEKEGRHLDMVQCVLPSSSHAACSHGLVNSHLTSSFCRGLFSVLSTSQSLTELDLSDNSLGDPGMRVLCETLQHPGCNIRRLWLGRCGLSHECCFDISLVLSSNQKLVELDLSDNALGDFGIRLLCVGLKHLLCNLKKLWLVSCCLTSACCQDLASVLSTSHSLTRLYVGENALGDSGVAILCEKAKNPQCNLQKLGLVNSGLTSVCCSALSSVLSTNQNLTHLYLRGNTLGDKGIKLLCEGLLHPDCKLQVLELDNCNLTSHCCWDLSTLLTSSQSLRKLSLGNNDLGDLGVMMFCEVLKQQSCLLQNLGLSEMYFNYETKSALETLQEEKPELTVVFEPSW

Structure (SMILES)	IC50 [µM]
CCN1CC[C@H]2CCN(c3cc(C(F)F)c(-c4ccc(C)cc4O)nn3)[C@H]2C1 (single isomer, unassigned) [Example 490]	0.001
CC(=O)N1CC[C@H]2CCN(c3cc(C)c(-c4ccc(C(F)(F)F)cc4O)nn3)[C@H]2C1 [Example 514, 1-[(3aR,7aR)-1-[6-[2-hydroxy-4-(trifluoromethyl)phenyl]-5-methyl-pyridazin-3-yl]-3,3a,4,5,7,7a-hexahydro-2H-pyrrolo[2,3-c]pyridin-6-yl]ethanone]	0.196
Cc1cc(C)c(-c2ccc(N3C4CCC3COC4)nn2)c(O)c1 [Example 120, 3,5-dimethyl-2-[6-(3-oxa-8-azabicyclo[3.2.1]octan-8-yl)pyridazin-3-yl]phenol]	2.52
Cc1cccc(O)c1-c1ccc(N2CCO[C@@H]3CCNC[C@@H]32)nn1 [Example 411, 2-[6-[(4aS,8aR)-2,3,4a,5,6,7,8,8a-octahydropyrido[4,3-b][1,4]oxazin-4-yl]pyridazin-3-yl]-3-methyl-phenol]	0.344
CCN1CC[C@H]2CCN(c3cc(C(F)F)c(-c4ccc(C(F)(F)F)cc4O)nn3)[C@H]2C1 (single isomer, unassigned) [Example 486]	< 0.0003
CCN1CCOCC2(C1)CN(c1ccc(-c3c(C)cc(C)cc3O)nn1)CCO2 (stereo not shown) [Example 208, 2-[6-(8-ethyl-1,11-dioxa-4,8-diazaspiro[5.6]dodecan-4-yl)pyridazin-3-yl]-3,5-dimethylphenol]	0.972
Cc1cccc(O)c1-c1ccc(N2CC[C@@H]3CCN(C)C[C@@H]32)nn1 (single isomer, unassigned) [Example 415]	4.66
NCC1CCN(c2ccc(-c3c(O)cc(Cl)cc3Cl)nn2)CC1 [Example 19, 2-[6-[4-(aminomethyl)-1-piperidyl]pyridazin-3-yl]-3,5-dichloro-phenol]	1.48
Cc1cc(N2CCO[C@@H]3CCN(C)C[C@@H]32)nnc1-c1ccc2c(c1O)CCC2 [Example 471, 5-[6-[(4aS,8aR)-6-methyl-3,4a,5,7,8,8a-hexahydro-2H-pyrido[4,3-b][1,4]oxazin-4-yl]-4-methyl-pyridazin-3-yl]indan-4-ol]	0.001
CN1CC[C@@H]2CCN(c3cc(C(F)F)c(-c4ccc(Cl)cc4O)nn3)[C@@H]2C1 (single isomer, unassigned) [Example 501]	< 0.0003
Cc1cc(C)c(-c2ccc(N3CCC[C@@H]4CCN(C)C[C@H]43)nn2)c(O)c1 [Example 517, 2-[6-[(4aR,8aS)-7-methyl-2,3,4,4a,5,6,8,8a-octahydro-1,7-naphthyridin-1-yl]pyridazin-3-yl]-3,5-dimethyl-phenol]	1.34
CCN1CC[C@@H]2CCN(c3ccc(-c4c(O)cccc4C(F)(F)F)nn3)[C@@H]2C1 (single isomer, unassigned) [Example 473]	0.005
Cc1ccc(-c2nnc(N3CC[C@H]4CCN(C)C[C@H]43)cc2C(F)F)c(O)c1 (single isomer, unassigned) [Example 507]	0.001
CCN1CC[C@H]2CCN(c3ccc(-c4c(C)cc(Cl)cc4O)nn3)[C@H]2C1 (single isomer, unassigned) [Example 497]	0.0004

More lines, now with the values ahead:

IC50 [µM]	Structure (SMILES)
0.69	Cc1cc(C(F)(F)F)cc(O)c1-c1ccc(N2CC[C@@H]3CN(C)C[C@@H]32)nn1 (single isomer, unassigned) [Example 271]
0.00075	CCN1CC[C@H]2OCCN(c3ccc(-c4c(C)cc(C)cc4O)nn3)[C@H]2C1 [Example 404, 2-[6-[(4aS,8aR)-6-ethyl-3,4a,5,7,8,8a-hexahydro-2H-pyrido[4,3-b][1,4]oxazin-4-yl]pyridazin-3-yl]-3,5-dimethyl-phenol]
0.496	Cc1cc(C)c(-c2ccc(N3CCO[C@@H]4COCC[C@@H]43)nn2)c(O)c1 (racemic) [Example 111, 2-[6-[rac-(4aS,8aS)-3,4a,5,7,8,8a-hexahydro-2H-pyrano[3,4-b][1,4]oxazin-1-yl]pyridazin-3-yl]-3,5-dimethyl-phenol]
0.028	Cc1cc(C)c(-c2ccc(N3CCO[C@@H]4CCN(CCF)C[C@@H]43)nn2)c(O)c1 [Example 521, 2-[6-[(4aS,8aR)-6-(2-fluoroethyl)-3,4a,5,7,8,8a-hexahydro-2H-pyrido[4,3-b][1,4]oxazin-4-yl]pyridazin-3-yl]-3,5-dimethyl-phenol]
0.461	Cc1cc(C(F)(F)F)cc(O)c1-c1ccc(N2CC[C@H]3CCNC[C@H]32)nn1 (single isomer, unassigned) [Example 393]
0.385	Cc1cc(C)c(-c2ccc(N3CCCCC(CO)C3)nn2)c(O)c1 (stereo not shown) [Example 107, 2-[6-[3-(hydroxymethyl)azepan-1-yl]pyridazin-3-yl]-3,5-dimethyl-phenol]
1.15	COC[C@@H]1CCN(c2ccc(-c3c(C)cc(C)cc3O)nn2)C1 [Example 88, 2-[6-[(3R)-3-(methoxymethyl)pyrrolidin-1-yl]pyridazin-3-yl]-3,5-dimethyl-phenol]
0.685	Cc1cc(C)c(-c2ccc(N3CCO[C@@H](C(N)=O)C3)nn2)c(O)c1 [Example 183, (2R)-4-[6-(2-hydroxy-4,6-dimethylphenyl)pyridazin-3-yl]morpholine-2-carboxamide]
0.044	Cc1cc(C(F)(F)F)cc(O)c1-c1ccc(N2CCC[C@H]3[C@@H]2CCCN3C)nn1 [Example 515, 2-[6-[(4aS,8aS)-5-methyl-2,3,4,4a,6,7,8,8a-octahydro-1,5-naphthyridin-1-yl]pyridazin-3-yl]-3-methyl-5-(trifluoromethyl)phenol]
0.897	Cc1cc(C)c(-c2ccc(N3C[C@H](O)CO3)nn2)c(O)c1 [Example 179, (4S)-2-[6-(2-hydroxy-4,6-dimethyl-phenyl)pyridazin-3-yl]isoxazolidin-4-ol]
0.46	Cc1cc(C(F)(F)F)cc(O)c1-c1ccc(N2CCO[C@H]3CN(C)C[C@H]32)nn1 (single isomer, unassigned) [Example 333]
0.198	Cc1cc(C(F)(F)F)cc(O)c1-c1ccc(N2CC[C@@H](CO)C2=O)nn1 (single isomer, unassigned) [Example 326]
0.188	Cc1cc(C(F)(F)F)cc(O)c1-c1ccc(N2CCO[C@H](CO)C2=O)nn1 (stereo in doubt) [Example 368, 2-(hydroxymethyl)-4-[6-[2-hydroxy-6-methyl-4-(trifluoromethyl)phenyl]pyridazin-3-yl]morpholin-3-one]
0.219	Cc1cc(C(F)(F)F)cc(O)c1-c1ccc(N2CCO[C@@H](CC#N)C2)nn1 (single isomer, unassigned) [Example 328]
